Results: patent US20040072770A1, “Methods for specifically inhibiting histone deacetylase-7 and 8” (priority 2002, published 2004)

Columns and labels:
[1] = target: T1, HDAC-7 (Homo sapiens, UniProt Q8WUI4); experiment: Enzyme inhibitory activity, HD7; assay type: biochemical; settings: read-out: IC50 HD 7
T1 sequence (Q8WUI4 1-952): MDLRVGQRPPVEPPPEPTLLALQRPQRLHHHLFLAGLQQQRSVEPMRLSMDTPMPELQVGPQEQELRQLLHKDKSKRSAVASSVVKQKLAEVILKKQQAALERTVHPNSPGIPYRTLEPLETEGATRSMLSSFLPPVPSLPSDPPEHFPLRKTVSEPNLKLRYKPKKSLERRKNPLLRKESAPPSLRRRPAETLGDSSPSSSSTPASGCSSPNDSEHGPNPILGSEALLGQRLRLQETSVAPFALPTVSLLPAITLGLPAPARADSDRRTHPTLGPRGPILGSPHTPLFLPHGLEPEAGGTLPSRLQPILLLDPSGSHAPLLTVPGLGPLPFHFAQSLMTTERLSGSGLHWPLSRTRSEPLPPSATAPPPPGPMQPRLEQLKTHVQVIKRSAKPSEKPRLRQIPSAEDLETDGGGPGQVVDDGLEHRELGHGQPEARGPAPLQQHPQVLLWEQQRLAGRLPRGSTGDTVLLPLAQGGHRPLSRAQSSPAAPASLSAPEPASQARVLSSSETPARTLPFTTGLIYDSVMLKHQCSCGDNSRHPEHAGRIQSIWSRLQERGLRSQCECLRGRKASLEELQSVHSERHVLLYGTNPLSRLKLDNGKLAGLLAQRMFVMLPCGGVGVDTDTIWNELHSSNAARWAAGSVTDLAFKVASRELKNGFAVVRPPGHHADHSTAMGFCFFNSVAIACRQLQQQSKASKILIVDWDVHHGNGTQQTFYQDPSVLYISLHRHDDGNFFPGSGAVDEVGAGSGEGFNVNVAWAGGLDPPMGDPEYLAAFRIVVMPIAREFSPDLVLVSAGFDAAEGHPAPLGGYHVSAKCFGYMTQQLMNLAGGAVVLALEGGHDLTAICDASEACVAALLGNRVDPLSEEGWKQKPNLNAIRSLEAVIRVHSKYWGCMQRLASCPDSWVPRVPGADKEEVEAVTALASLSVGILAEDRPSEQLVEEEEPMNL

[2] = system: colon carcinoma cells HCT116 tumors; experiment: Tumor growth in a mouse model, HCT116; assay type: in vivo; settings: intraperitoneal, BALB/c nude mice, vs vehicle-treated
Description: (§1) Female BALB/c nude mice are obtained from Charles River Laboratories (Charles River, N.Y.) and used at age 8-10 weeks. Human tumor cells (2×10^6, colon carcinoma cells HCT116 or SW48, lung carcinoma cells A549, pancreatic carcinoma Panc-1, ovarian carcinoma cells ES2, or prostate carcinoma cells Du145) are injected subcutaneously in the animal's flank and allowed to form solid tumors. Tumor fragments are serially passaged a minimum of three times, then approximately 30 mg tumor fragments are implanted subcutaneously through a small surgical incision under general anaesthesia. Small molecule inhibitor administration by intraperotineal or oral administration was initiated when the tumors reached a volume of 100 mm^3. For intraperotineal administration, small molecule inhibitors of HDAC-7, HDAC-8 or both, or in combination with small molecule inhibitors of HDAC-1 (20-60 mg/kg body weight/day) are dissolved in 100% DMSO and administered daily by injection. For oral administration, small molecule inhibitors of HDAC (60 mg/kg body weight) are dissolved in saline acidified with 0.2 N HCl. Tumor volumes are monitored twice weekly up to 20 days. Each experimental group contains at least 6-8 animals. Percentage inhibition is calculated using volume of tumor from vehicle-treated mice as controls. Shown in Table 4, inhibition of HDAC7 or HDAC8 in combination with HDAC1 leads to inhibition of growth of various human tumors in vivo.

[3] = system: lung carcinoma cells A549 tumors; experiment: Tumor growth in a mouse model, A549; assay type: in vivo; settings: BALB/c nude mice, vs vehicle-treated
Description: as §1, with “Shown in Table 4, inhibition of HDAC7 or HDAC8 in combination with HDAC1 leads to inhibition of growth of various human tumors in vivo.” left out

[4] = system: pancreatic carcinoma Panc-1 tumors; experiment: Tumor growth in a mouse model, Panc-1; assay type: in vivo; settings: BALB/c nude mice, vs vehicle-treated
Description: as §1, with “Shown in Table 4, inhibition of HDAC7 or HDAC8 in combination with HDAC1 leads to inhibition of growth of various human tumors in vivo.” left out

[5] = system: colon carcinoma cells SW48 tumors; experiment: Tumor growth in a mouse model, SW48; assay type: in vivo; settings: (6,0,O): oral; BALB/c nude mice; vs vehicle-treated
Description: as §1, with “Shown in Table 4, inhibition of HDAC7 or HDAC8 in combination with HDAC1 leads to inhibition of growth of various human tumors in vivo.” left out

[6] = system: prostate carcinoma cells Du145 tumors; experiment: Tumor growth in a mouse model, Du145; assay type: in vivo; settings: (60,I): 60 mg/kg body weight/day, intraperitoneal; BALB/c nude mice; vs vehicle-treated
Description: as §1, with “Shown in Table 4, inhibition of HDAC7 or HDAC8 in combination with HDAC1 leads to inhibition of growth of various human tumors in vivo.” left out

[7] = (20,I): 20 mg/kg body weight/day

Structure (SMILES) | IC50 [1] [µM] | % of Inhibition of Tumor Growth in Vivo HCT116 [2, 7] | % of Inhibition of Tumor Growth in Vivo HCT116 ([2]; (40,I): 40 mg/kg body weight/day) | % of Inhibition of Tumor Growth in Vivo A 549 ([3]; (30,I): 30 mg/kg body weight/day, intraperitoneal) | % of Inhibition of Tumor Growth in Vivo PANC-1 ([4]; (3,0,I): intraperitoneal) | % of Inhibition of Tumor Growth in Vivo SW 48 [5] | % of Inhibition of Tumor Growth in Vivo A 549 ([3]; (5,0,O): oral) | % of Inhibition of Tumor Growth in Vivo PANC-1 ([4]; (60,O): 60 mg/kg body weight, oral) | % of Inhibition of Tumor Growth in Vivo DU 145 [6]
Nc1ccccc1NC(=O)c1ccc(CSc2nc3ccccc3[nH]2)cc1 [Compound 16, N-(2-Amino-phenyl)-4-(1H-benzimidazol-2-ylsulfanylmethyl)-benzamide] | 38 | 61(20,I) % | – | – | – | – | – | – | –
Cc1ccc(S(=O)(=O)Nc2ccc(/C=C/C(=O)Nc3ccccc3N)cc2)cc1 [Compound 5, N-(2-Aminophenyl)-3-[4-(4-methylbenzenesulfonylamino)-phenyl]-acrylamide] | 20 | 48(20,I) % | 55(40,I) % | – | – | – | – | – | –
COc1ccc(-c2ccnc(NCc3ccc(C(=O)Nc4ccccc4N)cc3)n2)cc1OC [Compound 21, N-(2-Amino-phenyl)-4-{[4-(3,4-dimethoxy-phenyl)-pyrimidin-2-ylamino]-methyl}-benzamide] | 37 | – | – | >50(30,I) % | >50(3,0,I) % | – | – | – | –
COc1ccc(NCc2ccc(C(=O)Nc3ccccc3N)cc2)cc1OC [Compound 17, N-(2-Aminophenyl)-4-[(3,4-dimethoxyphenylamino)-methyl]-benzamide] | 45 | 77(20,I) % | – | – | – | 68(6,0,O) % | 67(5,0,O) % | 78(60,O) % | >50(60,I) %
